From patent US20170151200A1, “PROPHYLACTIC OR THERAPEUTIC AGENT FOR IDIOPATHIC INFLAMMATORY MYOPATHIES” (EA Pharma Co., Ltd., priority 2012, published 2017)

Tests used:
[1] = system: C-protein-induced mouse myositis model (CIM mouse); assay: Inflammation score of muscular tissue in C-protein-induced mouse myositis model (CIM); format: in vivo; settings: 0.75 g/kg BCAA or 20 mg/kg PSL oral consecutively from 3 days after immunization, 21 days after immunization, vs Vehicle group, FIG. 1
Protocol: Using C-protein-induced mouse myositis model (C-protein-induced Myositis: CIM), the effect of BCAA on the inflammation of muscular tissues was examined. For antigen immunization of C57BL/6 mouse (female, 8-week-old), an adjuvant containing 200 μg C-protein and 100 μg killed tuberculosis bacterium (Mycobacterium butyricum), and Complete Freund's adjuvant (CFA) as a component was intradermally injected to the hindpaw sole and tail base, C-protein-free CFA injected to the base of forelimb, and 0.25 μg pertussis toxin was intraperitoneally injected. As an adjuvant control without immunization with an antigen, CFA was intradermally injected to the same sites. From three days after immunization, 0.75 g/kg BCAA (mixture of isoleucine, leucine and valine at a weight ratio of isoleucine:leucine:valine=1:2:1.2) or 20 mg/kg Prednisolone (PSL) was orally administered consecutively, and they were used as the BCAA administration group and the PSL administration group, respectively. In addition, 0.5% methylcellulose and 5% gamma cyclodextrin were orally administered instead of BCAA and the like to give the Vehicle administration group. After 21 days from immunization, the muscle was collected, and the levels of inflammation of quadriceps and flexor muscles were evaluated by the inflammation score. […]

[2] = system: C-protein-induced mouse myositis model (CIM mouse); assay: Muscle weight (quadriceps, hamstring/flexor muscles, triceps) in CIM mouse; format: in vivo; settings: 21 days after immunization
Protocol: (§1) Using C-protein-induced mouse myositis model (C-protein-induced Myositis: CIM), the effect of BCAA on the inflammation of muscular tissues was examined. For antigen immunization of C57BL/6 mouse (female, 8-week-old), an adjuvant containing 200 μg C-protein and 100 μg killed tuberculosis bacterium (Mycobacterium butyricum), and Complete Freund's adjuvant (CFA) as a component was intradermally injected to the hindpaw sole and tail base, C-protein-free CFA injected to the base of forelimb, and 0.25 μg pertussis toxin was intraperitoneally injected. As an adjuvant control without immunization with an antigen, CFA was intradermally injected to the same sites. […] After 21 days from immunization, the muscle was collected, and the levels of inflammation of quadriceps and flexor muscles were evaluated by the inflammation score.
Quadriceps, flexor muscles and triceps were collected from the CIM mouse and control mouse (Ctrl) after 21 days from immunization, and the muscle weight was measured. […]
Quadriceps, hamstrings, and triceps were collected from the CIM mouse and control mouse (Ctrl) of Example 5 after 21 days from the immunization, and the muscle weight was measured.

[3] = system: C-protein-induced mouse myositis model (CIM mouse); assay: Forelimb muscle strength by grip dynamometer in CIM mouse; format: in vivo; settings: 20 days after immunization
Protocol: as §1
After 20 days from immunization, the muscle strength of the forelimb of each mouse was measured by a veterinary grip dynamometer MK-380CM/R (Muromachi Kikai Co., Ltd.). The measurement was performed 6 times for each animal, and the average thereof was determined. […]
The muscle strength of the forelimb of each mouse was measured after 20 days from the immunization in Example 5 using veterinary grip dynamometer MK-380CM/R (Muromachi Kikai Co., Ltd.). The measurement was performed 6 times for each animal, and the average thereof was determined.

[4] = system: C-protein-induced mouse myositis model (CIM mouse); assay: Sectional area of fast muscle fiber (MHC IIB-positive) of triceps in CIM mouse; format: in vivo; settings: triceps 21 days after immunization, 0.75 g/kg BCAA or 20 mg/kg PSL oral, histogram shift toward the left side = atrophy, FIG. 4
Protocol: as §1
Since steroid myopathy is predominantly developed in the fast muscle fiber (MHC IIB-positive fiber), atrophy of the muscle fiber of the CIM mouse was evaluated by measuring the sectional area of the muscle fiber. The boundary area of the fast muscle fiber and the muscle fiber of the section of the triceps collected 21 days after the immunization was labeled by immune fluorescent staining using anti-MHC IIB antibody and anti-Laminin antibody (Sigma), and the sectional area of the MHC IIB-positive muscle fiber was measured using Image J software (NIH). […]

[5] = system: patients with polymyositis, dermatomyositis and inclusion body myositis; settings: cited from earlier work

Which inflammation score [1] does the source give for `C[C@]12C=CC(=O)C=C1CC[C@@H]1[C@@H]2[C@@H](O)C[C@@]2(C)[C@H]1CC[C@]2(O)C(=O)CO` [PSL, Prednisolone] here?
Its inflammation score is “significantly suppressed”.

What about the muscle weight ([2]; CIM mouse of Example 5, 0.25, 0.75 or 2.25 g/kg BCAA + 20 mg/kg PSL, or 20 mg/kg PSL alone, oral, FIG. 6) of the same molecule?
The muscle weight was “did not increase”.

And the muscle weight ([2]; CIM mouse, 0.75 g/kg BCAA or 20 mg/kg PSL oral, quadriceps, flexor muscles, triceps, FIG. 2)?
The muscle weight was “did not show improvement”.

And the “strength of the forelimb muscle” value ([3]; CIM mouse of Example 5, 0.25, 0.75 or 2.25 g/kg BCAA + 20 mg/kg PSL, or 20 mg/kg PSL alone, oral, FIG. 7)?
Its value is “did not increase”.

What about the “muscle strength of the forelimb” value ([3]; CIM mouse, 0.75 g/kg BCAA or 20 mg/kg PSL oral, FIG. 3) of the same molecule?
The value was “improvement effect was weak”.

And the “distribution of fast muscle fiber sectional area (muscle fiber atrophy)” value [4]?
The value was “tendency was stronger”.

For Anakinra: IL-1 receptor antagonist, which anti-inflammatory effect ([5]; polymyositis and dermatomyositis, Ann Rheum Dis. 2011;70:A80-A81) is on record?
The anti-inflammatory effect was “has not been observed”.

For “Infliximab: anti-TNF antibody effective for rheumatoid arthritis”, which “effect on inflammation in patients” value ([5]; patients with polymyositis, dermatomyositis and inclusion body myositis, Ann Rheum Dis. 2008;67(12):1670-7) is on record?
Its value is “aggravation of inflammation and activation of type I interferons”.
